Laboratory results: ChEMBL document CHEMBL1201862, “PubChem BioAssay data set” (2004)
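Where inhibition never reached the appropriate level, the endpoint shown equals the highest concentration tested. Otherwise, values were interpolated linearly from a five-concentration, 48-hour dose response in 96-well plates. GI50 marks 50% less growth.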 Activity calls are given as the source filed them. No stated cut-off is given here; in the data, active = GI50 up to about 1.1 µM and inactive = higher.

Tests used:
Test in all cases: NCI-60 cell line screen, 48 h
MDA-MB-231 = test system: MDA-MB-231
BT-549 = test system: BT-549
SF-268 = test system: SF-268
MDA-MB-435 = test system: MDA-MB-435
UO-31 = test system: UO-31
SNB-75 = test system: SNB-75
NCI-H460 = test system: NCI-H460
SK-MEL-5 = test system: SK-MEL-5
T47D = test system: T47D
SF-295 = test system: SF-295
SNB-19 = test system: SNB-19
OVCAR-8 = test system: OVCAR-8
U-251 = test system: U-251
NCI-H226 = test system: NCI-H226
RPMI-8226 = test system: RPMI-8226
HOP-62 = test system: HOP-62
CAKI-1 = test system: CAKI-1
A549 = test system: A549
SW-620 = test system: SW-620
MCF7 = test system: MCF7
MOLT-4 = test system: MOLT-4
NCI/ADR-RES = test system: NCI/ADR-RES
UACC-257 = test system: UACC-257
Hs-578T = test system: Hs-578T
A498 = test system: A498
K562 = test system: K562
TK-10 = test system: TK-10
PC-3 = test system: PC-3
COLO 205 = test system: COLO 205
MDA-N = test system: MDA-N
SK-MEL-28 = test system: SK-MEL-28
OVCAR-3 = test system: OVCAR-3
CCRF-CEM = test system: CCRF-CEM
HCT-15 = test system: HCT-15
HT-29 = test system: HT-29
SK-MEL-2 = test system: SK-MEL-2
OVCAR-5 = test system: OVCAR-5
ACHN = test system: ACHN
DU-145 = test system: DU-145
M14 = test system: M14
NCI-H23 = test system: NCI-H23
HL-60 = test system: HL-60
UACC-62 = test system: UACC-62
RXF 393 = test system: RXF 393
SF-539 = test system: SF-539
EKVX = test system: EKVX
HCT-116 = test system: HCT-116
SN12C = test system: SN12C
786-0 = test system: 786-0
KM12 = test system: KM12
IGROV-1 = test system: IGROV-1
SR = test system: SR
SK-OV-3 = test system: SK-OV-3
Malme-3M = test system: Malme-3M
NCI-H522 = test system: NCI-H522
HCC 2998 = test system: HCC 2998
LOX IMVI = test system: LOX IMVI
OVCAR-4 = test system: OVCAR-4
HOP-92 = test system: HOP-92

For `Cn1ncc2[nH]cnc2c1=S`, the GI50 (MDA-MB-231) was > 100 µM (inactive), the GI50 (BT-549) was > 100 µM (inactive) and the GI50 (SF-268) was > 100 µM (inactive). For the same molecule, the GI50 (MDA-MB-435) was > 100 µM (inactive), the GI50 (UO-31) was > 100 µM (inactive) and the GI50 (SNB-75) was 86.1 µM (inactive). The GI50 (NCI-H460) was > 100 µM (inactive), the GI50 (SK-MEL-5) was 82.4 µM (inactive) and the GI50 (T47D) was > 100 µM (inactive). The GI50 (SF-295) was > 100 µM (inactive), the GI50 (SNB-19) was > 100 µM (inactive) and the GI50 (OVCAR-8) was > 100 µM (inactive). For the same molecule, the GI50 (U-251) was > 100 µM (inactive), the GI50 (NCI-H226) was > 100 µM (inactive) and the GI50 (RPMI-8226) was 34.8 µM (inactive). For the same molecule, the GI50 (HOP-62) was > 100 µM (inactive), the GI50 (CAKI-1) was > 100 µM (inactive) and the GI50 (A549) was > 100 µM (inactive). For the same molecule, the GI50 (SW-620) was > 100 µM (inactive), the GI50 (MCF7) was 79.3 µM (inactive) and the GI50 (MOLT-4) was 43.8 µM (inactive). For the same molecule, the GI50 (NCI/ADR-RES) was > 100 µM (inactive), the GI50 (UACC-257) was > 100 µM (inactive) and the GI50 (Hs-578T) was > 100 µM (inactive). For the same molecule, the GI50 (A498) was > 100 µM (inactive), the GI50 (K562) was 50.7 µM (inactive) and the GI50 (TK-10) was > 100 µM (inactive). The GI50 (PC-3) was > 100 µM (inactive), the GI50 (COLO 205) was 47.5 µM (inactive) and the GI50 (MDA-N) was > 100 µM (inactive). The GI50 (SK-MEL-28) was > 100 µM (inactive), the GI50 (OVCAR-3) was > 100 µM (inactive) and the GI50 (CCRF-CEM) was 19.8 µM (inactive). The GI50 (HCT-15) was over 100 µM, the GI50 (HT-29) was 57.7 µM (inactive) and the GI50 (SK-MEL-2) was > 100 µM (inactive). For the same molecule, the GI50 (OVCAR-5) was > 100 µM (inactive), the GI50 (ACHN) was > 100 µM (inactive) and the GI50 (DU-145) was > 100 µM (inactive). For the same molecule, the GI50 (M14) was > 100 µM (inactive), the GI50 (NCI-H23) was > 100 µM (inactive) and the GI50 (HL-60) was 0.541 µM (active). The GI50 (UACC-62) was > 100 µM (inactive), the GI50 (RXF 393) was > 100 µM (inactive) and the GI50 (SF-539) was > 100 µM (inactive). For the same molecule, the GI50 (EKVX) was > 100 µM (inactive), the GI50 (HCT-116) was > 100 µM (inactive) and the GI50 (SN12C) was > 100 µM (inactive). For the same molecule, the GI50 (786-0) was > 100 µM (inactive), the GI50 (KM12) was > 100 µM (inactive) and the GI50 (IGROV-1) was > 100 µM (inactive). For the same molecule, the GI50 (SR) was 26.7 µM (inactive).
`Cc1c(C#N)c(N)n(C2OCC(O)C(O)C2O)c(=S)c1C#N` (stereo unspecified) was tested, and the GI50 (MDA-MB-231) was > 100 µM (inactive), the GI50 (BT-549) was > 100 µM (inactive) and the GI50 (SK-OV-3) was > 100 µM (inactive). The GI50 (SF-268) was > 100 µM (inactive), the GI50 (MDA-MB-435) was > 100 µM (inactive) and the GI50 (UO-31) was > 100 µM (inactive). The GI50 (SNB-75) was 83.4 µM (inactive), the GI50 (NCI-H460) was > 100 µM (inactive) and the GI50 (SK-MEL-5) was > 100 µM (inactive). For the same molecule, the GI50 (T47D) was > 100 µM (inactive), the GI50 (SF-295) was > 100 µM (inactive) and the GI50 (SNB-19) was > 100 µM (inactive). The GI50 (OVCAR-8) was > 100 µM (inactive), the GI50 (NCI-H226) was > 100 µM (inactive) and the GI50 (RPMI-8226) was > 100 µM (inactive). For the same molecule, the GI50 (HOP-62) was > 100 µM (inactive), the GI50 (CAKI-1) was > 100 µM (inactive) and the GI50 (A549) was > 100 µM (inactive). For the same molecule, the GI50 (SW-620) was > 100 µM (inactive), the GI50 (MCF7) was > 100 µM (inactive) and the GI50 (MOLT-4) was > 100 µM (inactive). The GI50 (NCI/ADR-RES) was > 100 µM (inactive), the GI50 (UACC-257) was > 100 µM (inactive) and the GI50 (Hs-578T) was 24.5 µM (inactive). The GI50 (A498) was > 100 µM (inactive), the GI50 (K562) was > 100 µM (inactive) and the GI50 (TK-10) was > 100 µM (inactive). The GI50 (PC-3) was > 100 µM (inactive), the GI50 (Malme-3M) was > 100 µM (inactive) and the GI50 (MDA-N) was > 100 µM (inactive). For the same molecule, the GI50 (SK-MEL-28) was > 100 µM (inactive), the GI50 (OVCAR-3) was > 100 µM (inactive) and the GI50 (CCRF-CEM) was > 100 µM (inactive). For the same molecule, the GI50 (HCT-15) was over 100 µM, the GI50 (NCI-H522) was > 100 µM (inactive) and the GI50 (HT-29) was > 100 µM (inactive). The GI50 (SK-MEL-2) was 21.4 µM (inactive), the GI50 (OVCAR-5) was > 100 µM (inactive) and the GI50 (ACHN) was > 100 µM (inactive). For the same molecule, the GI50 (DU-145) was > 100 µM (inactive), the GI50 (M14) was > 100 µM (inactive) and the GI50 (NCI-H23) was > 100 µM (inactive). The GI50 (HL-60) was > 100 µM (inactive), the GI50 (UACC-62) was > 100 µM (inactive) and the GI50 (RXF 393) was > 100 µM (inactive). The GI50 (SF-539) was > 100 µM (inactive), the GI50 (SN12C) was > 100 µM (inactive) and the GI50 (786-0) was > 100 µM (inactive). The GI50 (HCC 2998) was > 100 µM (inactive), the GI50 (LOX IMVI) was > 100 µM (inactive) and the GI50 (KM12) was > 100 µM (inactive). The GI50 (IGROV-1) was > 100 µM (inactive) and the GI50 (SR) was > 100 µM (inactive).
In the case of `Cc1ccc(/C=C2\Sc3scc(-c4ccccc4)[n+]3C2=O)cc1`, the GI50 (MDA-MB-231) is reported as 17.5 µM (inactive), the GI50 (BT-549) is reported as 17.4 µM (inactive) and the GI50 (SK-OV-3) is reported as 44.2 µM (inactive). The GI50 (SF-268) was 17.9 µM (inactive), the GI50 (MDA-MB-435) was 9.27 µM (inactive) and the GI50 (UO-31) was 14.5 µM (inactive). The GI50 (SNB-75) was 10.8 µM (inactive), the GI50 (NCI-H460) was 16.8 µM (inactive) and the GI50 (SK-MEL-5) was 21.6 µM (inactive). For the same molecule, the GI50 (T47D) was 48.3 µM (inactive), the GI50 (SF-295) was 24.6 µM (inactive) and the GI50 (SNB-19) was 24.5 µM (inactive). The GI50 (OVCAR-8) was 22.4 µM (inactive), the GI50 (U-251) was 16.2 µM (inactive) and the GI50 (NCI-H226) was 37.3 µM (inactive). The GI50 (RPMI-8226) was 8.28 µM (inactive), the GI50 (HOP-62) was 26.2 µM (inactive) and the GI50 (A549) was 25.1 µM (inactive). For the same molecule, the GI50 (SW-620) was 20.6 µM (inactive), the GI50 (MCF7) was 37.5 µM (inactive) and the GI50 (MOLT-4) was 30.1 µM (inactive). The GI50 (NCI/ADR-RES) was 19.5 µM (inactive), the GI50 (OVCAR-4) was 29 µM (inactive) and the GI50 (UACC-257) was 22.8 µM (inactive). For the same molecule, the GI50 (Hs-578T) was 3.38 µM (inactive), the GI50 (K562) was 12.3 µM (inactive) and the GI50 (TK-10) was 19.8 µM (inactive). The GI50 (PC-3) was 29 µM (inactive), the GI50 (COLO 205) was 20.7 µM (inactive) and the GI50 (MDA-N) was 18 µM (inactive). The GI50 (SK-MEL-28) was 51.5 µM (inactive), the GI50 (OVCAR-3) was 31.4 µM (inactive) and the GI50 (CCRF-CEM) was 13.6 µM (inactive). The GI50 (HCT-15) was 19.8 µM, the GI50 (HOP-92) was 15.4 µM (inactive) and the GI50 (NCI-H522) was 3.4 µM (inactive). The GI50 (HT-29) was 24.7 µM (inactive), the GI50 (SK-MEL-2) was 24.1 µM (inactive) and the GI50 (OVCAR-5) was 33.4 µM (inactive). The GI50 (ACHN) was 20.7 µM (inactive), the GI50 (DU-145) was 24.7 µM (inactive) and the GI50 (M14) was 23.8 µM (inactive). The GI50 (NCI-H23) was 17.5 µM (inactive), the GI50 (HL-60) was 2.69 µM (inactive) and the GI50 (UACC-62) was 16.7 µM (inactive). The GI50 (RXF 393) was 25.9 µM (inactive), the GI50 (SF-539) was 22.3 µM (inactive) and the GI50 (EKVX) was 19.3 µM (inactive). The GI50 (HCT-116) was 21.2 µM (inactive), the GI50 (SN12C) was 21.4 µM (inactive) and the GI50 (786-0) was 22.3 µM (inactive). For the same molecule, the GI50 (HCC 2998) was 27.7 µM (inactive), the GI50 (LOX IMVI) was 20.6 µM (inactive) and the GI50 (KM12) was 18.5 µM (inactive). For the same molecule, the GI50 (IGROV-1) was 18 µM (inactive) and the GI50 (SR) was 5 µM (inactive).
